According to ChEMBL document CHEMBL1201862, “PubChem BioAssay data set” (2004):
Values belong to the compound of their own block, whether it stands above or below them. The source made the active and inactive calls.

Assays:
Leucine aminopeptidase = molecular target: T1, Leucine aminopeptidase (Plasmodium falciparum 3D7, UniProt Q8IL11); assay: P. falciparum M17LAP inhibitors, primary screen, biochemical, fluorogenic H-Leu-NHMec substrate, 1536-well (AID 1619); type: functional
T1 sequence (Q8IL11 whole entry): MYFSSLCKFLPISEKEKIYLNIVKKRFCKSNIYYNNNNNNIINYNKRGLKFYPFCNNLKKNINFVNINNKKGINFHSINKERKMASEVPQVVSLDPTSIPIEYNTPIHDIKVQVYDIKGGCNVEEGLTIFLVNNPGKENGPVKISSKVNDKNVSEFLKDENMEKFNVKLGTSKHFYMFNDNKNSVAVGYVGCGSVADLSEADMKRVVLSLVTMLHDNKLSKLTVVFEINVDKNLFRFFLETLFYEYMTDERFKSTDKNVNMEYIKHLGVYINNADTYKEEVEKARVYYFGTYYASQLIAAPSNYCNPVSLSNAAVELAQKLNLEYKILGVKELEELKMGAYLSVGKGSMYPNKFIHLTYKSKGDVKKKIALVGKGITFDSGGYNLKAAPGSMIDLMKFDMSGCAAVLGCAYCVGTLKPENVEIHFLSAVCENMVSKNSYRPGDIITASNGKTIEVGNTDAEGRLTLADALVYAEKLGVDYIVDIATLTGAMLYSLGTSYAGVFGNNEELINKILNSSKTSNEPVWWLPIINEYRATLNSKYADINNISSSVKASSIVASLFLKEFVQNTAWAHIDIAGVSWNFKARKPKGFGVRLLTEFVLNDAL

Aminopeptidase N = molecular target: T2, Aminopeptidase N (Plasmodium falciparum FcB1/Columbia, UniProt O96935); assay: malaria alanyl aminopeptidase activity blockers – biochemical, fluorogenic H-Leu-NHMec substrate, 1536-well (AID 1445); set-up: species or system Plasmodium falciparum 3D7, 3D7
T2 sequence (O96935 whole entry): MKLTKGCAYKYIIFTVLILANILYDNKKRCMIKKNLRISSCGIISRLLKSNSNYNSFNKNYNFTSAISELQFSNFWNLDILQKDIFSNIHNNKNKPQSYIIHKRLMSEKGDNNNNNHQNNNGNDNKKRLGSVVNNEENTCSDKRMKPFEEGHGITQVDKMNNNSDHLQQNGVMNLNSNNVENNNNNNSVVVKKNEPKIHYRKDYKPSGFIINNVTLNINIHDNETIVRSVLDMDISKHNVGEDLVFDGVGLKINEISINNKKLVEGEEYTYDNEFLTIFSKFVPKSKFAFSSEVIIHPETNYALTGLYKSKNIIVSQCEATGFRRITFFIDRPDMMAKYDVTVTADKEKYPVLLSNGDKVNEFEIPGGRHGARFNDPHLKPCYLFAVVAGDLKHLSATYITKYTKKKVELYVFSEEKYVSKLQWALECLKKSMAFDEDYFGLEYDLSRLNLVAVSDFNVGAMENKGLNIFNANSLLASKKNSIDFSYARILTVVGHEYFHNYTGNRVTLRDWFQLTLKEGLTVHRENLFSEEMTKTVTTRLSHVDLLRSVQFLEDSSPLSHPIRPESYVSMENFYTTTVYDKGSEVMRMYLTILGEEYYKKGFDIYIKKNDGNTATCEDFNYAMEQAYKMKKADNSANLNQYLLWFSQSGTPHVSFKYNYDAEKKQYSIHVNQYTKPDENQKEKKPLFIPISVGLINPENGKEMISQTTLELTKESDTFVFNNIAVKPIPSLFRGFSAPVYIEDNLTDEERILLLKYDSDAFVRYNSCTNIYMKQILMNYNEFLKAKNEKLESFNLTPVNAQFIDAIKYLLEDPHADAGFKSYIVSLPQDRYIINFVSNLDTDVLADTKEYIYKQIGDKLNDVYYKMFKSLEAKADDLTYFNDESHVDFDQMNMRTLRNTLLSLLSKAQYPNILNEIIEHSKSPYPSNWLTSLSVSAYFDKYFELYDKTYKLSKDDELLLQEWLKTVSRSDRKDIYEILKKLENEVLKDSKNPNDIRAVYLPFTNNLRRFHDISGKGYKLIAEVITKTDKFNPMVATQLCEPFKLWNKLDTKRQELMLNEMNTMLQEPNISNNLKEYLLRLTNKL

Cytochrome P450 3A4 = Cytochrome P450 3A4 (Homo sapiens, UniProt P08684); settings: Potency;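 note: confirmatory qHTS run detecting inhibitors and substrates of CYP3A4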
Chain of Cytochrome P450 3A4 (P08684 whole entry): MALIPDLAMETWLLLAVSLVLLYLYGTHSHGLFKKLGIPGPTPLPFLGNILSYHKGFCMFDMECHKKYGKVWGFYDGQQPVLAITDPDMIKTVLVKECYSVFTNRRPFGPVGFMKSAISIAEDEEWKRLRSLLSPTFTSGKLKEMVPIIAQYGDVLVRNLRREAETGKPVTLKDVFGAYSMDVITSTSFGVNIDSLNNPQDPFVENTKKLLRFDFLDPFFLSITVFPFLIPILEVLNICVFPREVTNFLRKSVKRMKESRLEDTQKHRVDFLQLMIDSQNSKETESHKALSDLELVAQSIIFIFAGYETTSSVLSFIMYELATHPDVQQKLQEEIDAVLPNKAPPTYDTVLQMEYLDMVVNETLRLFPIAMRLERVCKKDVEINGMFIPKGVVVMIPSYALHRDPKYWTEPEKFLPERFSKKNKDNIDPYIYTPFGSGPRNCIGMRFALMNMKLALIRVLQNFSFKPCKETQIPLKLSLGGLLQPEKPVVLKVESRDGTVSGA

Caspase-6 = molecular target: T3, Caspase-6 (Homo sapiens, UniProt P55212); assay: inhibition of CASP6 peptide cleavage – biochemical, VEID-R110 fluorescence, cherry-pick, dose response (AID 720632)
T3 sequence (P55212 whole entry): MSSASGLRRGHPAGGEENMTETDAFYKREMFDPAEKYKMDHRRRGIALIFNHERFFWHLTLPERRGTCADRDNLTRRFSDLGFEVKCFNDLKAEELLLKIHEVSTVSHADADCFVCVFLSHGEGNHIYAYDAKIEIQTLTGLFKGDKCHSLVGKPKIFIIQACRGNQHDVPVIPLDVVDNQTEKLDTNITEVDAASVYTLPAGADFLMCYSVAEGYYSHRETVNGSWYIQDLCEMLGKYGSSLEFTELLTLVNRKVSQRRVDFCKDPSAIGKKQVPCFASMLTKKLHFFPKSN

[1] = molecular target: Glyceraldehyde-3-phosphate dehydrogenase (Homo sapiens, UniProt P04406)
Chain of Glyceraldehyde-3-phosphate dehydrogenase (P04406 whole entry): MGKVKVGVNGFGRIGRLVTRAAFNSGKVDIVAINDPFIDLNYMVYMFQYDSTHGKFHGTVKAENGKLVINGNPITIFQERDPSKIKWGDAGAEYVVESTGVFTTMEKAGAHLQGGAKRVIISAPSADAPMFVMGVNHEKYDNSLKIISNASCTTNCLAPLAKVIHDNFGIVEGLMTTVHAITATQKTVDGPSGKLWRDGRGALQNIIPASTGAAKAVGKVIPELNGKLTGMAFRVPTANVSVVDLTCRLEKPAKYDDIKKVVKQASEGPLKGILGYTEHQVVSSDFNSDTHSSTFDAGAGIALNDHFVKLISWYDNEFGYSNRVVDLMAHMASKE

[2] = general mammalian cell viability loss – inhibitor set, cherry-pick, set 2, cytotoxicity control for miR-122 modulator project, dose response (AID 720697); type: functional, cell-based
[3] = P. falciparum Dd2 growth inhibitors, dose response, SYBR Green, cherry-picked samples (AID 1159567); type: functional, cell-based
[4] = activation of miR-122 Renilla sensor silencing – cell-based, Huh7 psiCHECK-miR122, Renilla luciferase, cherry-picked, dose response (AID 651956); type: functional;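 note: huh7 hepatoma cells stably carrying a psiCHECK-2 miR-122 sensor plasmid; renilla luciferase signal reporting endogenous miR-122 activity after 48 h compound exposure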
[5] = general mammalian cell viability loss – activator set, cherry-pick, cytotoxicity control for miR-122 modulator project, dose response (AID 720690); type: functional, cell-based;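 note: HEK293T human cells scored for general mammalian cytotoxicity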
[6] = toxicity to human hepatoma HepG2 cells – cell-based, cherry-picked samples, cytotoxicity control, dose response (AID 1159577); type: functional

- IC50 (Leucine aminopeptidase): 2.57 µM (active)
- IC50 (Aminopeptidase N): 21.9 µM (active)
Structure (SMILES): Cc1noc(NS(=O)(=O)c2ccc(NC(=O)CSc3n[nH]c4c5ccccc5nc-4n3)cc2)c1C

- IC50 (Leucine aminopeptidase): 6.58 µM (active)
Structure (SMILES): CCOC(=O)c1oc2c(O)c(O)ccc2c(=O)c1-c1nncn1-c1ccccc1

- AC50 (Cytochrome P450 3A4): 39.8 µM (inconclusive)
Structure (SMILES): CC(C)c1nc(N(C)S(C)(=O)=O)nc(-c2ccc(F)cc2)c1/C=C/C(O)CC(O)CC(=O)O (stereo unspecified)

- AC50 (Caspase-6): 47 µM (active)
Structure (SMILES): Cc1ccccc1Nc1nc(N)nc(COC(=O)c2ccc([N+](=O)[O-])o2)n1

- AC50 (Cytochrome P450 3A4): 3.16 µM (inconclusive)
Structure (SMILES): CC(C)Cn1c(N)c(C(=O)COC(=O)c2cc(C(F)(F)F)nc3c(C(F)(F)F)cccc23)c(=O)n(C)c1=O

- AC50 (Cytochrome P450 3A4): 31.6 µM (inconclusive)
Structure (SMILES): OC(CN1CCNCC1)Cn1c2ccc(Br)cc2c2cc(Br)ccc21 (stereo unspecified)

- AC50 (Cytochrome P450 3A4): 1.58 µM (inconclusive)
Structure (SMILES): CC(=O)N1[C@H](C)C=C[C@]1(Cc1ccccc1)C(=O)NCCc1c[nH]c2ccccc12

- AC50 (Caspase-6): 10.5 µM (active)
Structure (SMILES): Cc1cc(NS(=O)(=O)c2ccc(NC(=O)COc3ccccc3[N+](=O)[O-])cc2)no1

- IC50 [1]: > 100 µM (not active)
Structure (SMILES): O=C(O)CS(=O)(=O)c1cccc(C(=O)O)c1

- IC50 [1]: > 50 µM (inconclusive)
Structure (SMILES): Cc1ccc(N2C(=O)C(Cl)=C(N3CCN(c4ncccn4)CC3)C2=O)cc1

- AC50 (Cytochrome P450 3A4): 15.8 µM (inconclusive)
Structure (SMILES): Clc1ccc(C2[C@H]3CN(CC4CCCCC4)[C@H](c4ccccc4)C34CC2(c2ccccc2)C4)cn1 (stereo partly specified)

- AC50 (Cytochrome P450 3A4): 10 µM (inconclusive)
Structure (SMILES): C=C1C([C@@]2(C)C(OC(C)=O)CC(=O)O[C@@](C)(COC(C)=O)C2CC(=O)OC)C(OC=O)C(OC(=O)C(O)C(C)CC)[C@]2(C)C(c3ccoc3)CC(=O)C12O (stereo partly specified)

- IC50 (Leucine aminopeptidase): 7.64 µM (active)
Structure (SMILES): N=C(CSc1nc(-c2ccccc2)c(-c2ccccc2)o1)NO

- IC50 [1]: > 50 µM (inconclusive)
Structure (SMILES): C[C@@H]1CN(C2=C(Cl)C(=O)N(c3ccnc(Cl)c3)C2=O)CCN1

- AC50 (Caspase-6): 14.5 µM (active)
Structure (SMILES): O=C(O)c1cc(S(=O)(=O)Nc2ccc3c[nH]nc3c2)ccc1Br

Structure (SMILES): COc1ccc(NC(=O)N2CCCCN3[C@@H](CO)[C@H](c4ccc(C#CCC(C)C)cc4)[C@@H]3C2)cc1
- AC50 [2]: 11.7 µM (active)
- AC50 [3]: 0.491 µM (active)
- AC50 [4]: 3.18 µM (active)
- AC50 [5]: 11.6 µM (active)
- AC50 [6]: 8.52 µM (active)

- IC50 (Leucine aminopeptidase): 24.8 µM (active)
Structure (SMILES): CSc1nnc(-c2cc(Br)ccc2/N=C/c2c(C)nn(-c3ccccc3)c2O)c(O)n1

Structure (SMILES): COc1ccc(C#Cc2ccc([C@H]3[C@H](CO)N4CCCCN(Cc5ccccc5F)C[C@@H]34)cc2)cc1
- AC50 [3]: 0.781 µM (active)
- AC50 [6]: 10.9 µM (active)

Structure (SMILES): C[C@H]1CN([C@@H](C)CO)S(=O)(=O)c2ccc(C3=CCCCC3)cc2O[C@@H]1CN(C)C(=O)Cc1ccncc1
- AC50 [3]: 3.13 µM (active)
- AC50 [6]: > 39 µM (inactive)
